From publication PMC11750938, “Self-sufficient biocatalytic cascade for the continuous synthesis of danshensu in flow” (Applied Microbiology and Biotechnology, 2025)

Molecular target: T1, MpHPPR (hydroxyphenylpyruvate reductase from Mentha x piperita) (Mentha x piperita, UniProt A0A2R4SEK0)
T1 construct: codon-optimised synthetic gene in pET15b, N-terminal His-tag, expressed in E. coli BL21(DE3) Star, Ni-NTA purified, dimer
T1 sequence (A0A2R4SEK0 1-313): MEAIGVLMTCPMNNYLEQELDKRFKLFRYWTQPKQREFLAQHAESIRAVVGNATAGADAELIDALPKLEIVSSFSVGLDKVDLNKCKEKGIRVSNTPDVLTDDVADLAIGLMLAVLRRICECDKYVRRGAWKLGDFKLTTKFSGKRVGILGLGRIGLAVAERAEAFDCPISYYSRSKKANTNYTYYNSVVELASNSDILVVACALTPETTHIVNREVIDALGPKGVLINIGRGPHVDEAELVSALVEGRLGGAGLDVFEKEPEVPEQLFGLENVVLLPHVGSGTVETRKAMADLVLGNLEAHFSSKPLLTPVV
Assay: HPLC product quantification
Assay type: biochemical
Conditions: pH 7.0, 100 mM potassium phosphate, 37 °C, 10 mM NAD(P)H, 5 mM ß-mercaptoethanol

For `O=C(O)C(=O)Cc1ccc(O)cc1` [HPPA, 3-(4-Hydroxyphenyl)−2-oxopropanoic acid], the KM was “Specific activity and KM for phenylpyruvic acid (PPA), 4-hydroxyphenylpyruvic acid (HPPA)”.

`O=C(O)C(=O)Cc1ccccc1` [PPA, phenylpyruvic acid] was tested, and the KM was “Specific activity and KM for phenylpyruvic acid (PPA)”.
